Columns and labels:
[1] = biological target: recombinant RORγ Ligand Binding Domain (LBD) protein (Homo sapiens (Human), UniProt P51449); assay: Radio-Ligand RORγ Binding Assay (Assay 1); settings: radio-ligand 25-hydroxy [26,27-3H]-cholesterol competition
Outline: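 Cell-free competition with 25-hydroxy[26,27-³H]-cholesterol for the ligand site of 6×His-GST-tagged RORγ LBD; SPA read-out with poly-Lys YSi beads after shaking and incubation at rt. IC50 taken as the inflection point of a four-parameter fit of percent inhibition vs concentration.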

[2] = biological target: full-length RORγt in Jurkat cells (Homo sapiens (Human), UniProt P51449); assay: RORγt 5×RORE Assay in Jurkat Cells (Assay 2); type: cell-based; settings: RORγt 5×RORE Nanoluc reporter
Chain of full-length RORγt in Jurkat cells (P51449 other isoform, or with tags, fused parts or gaps): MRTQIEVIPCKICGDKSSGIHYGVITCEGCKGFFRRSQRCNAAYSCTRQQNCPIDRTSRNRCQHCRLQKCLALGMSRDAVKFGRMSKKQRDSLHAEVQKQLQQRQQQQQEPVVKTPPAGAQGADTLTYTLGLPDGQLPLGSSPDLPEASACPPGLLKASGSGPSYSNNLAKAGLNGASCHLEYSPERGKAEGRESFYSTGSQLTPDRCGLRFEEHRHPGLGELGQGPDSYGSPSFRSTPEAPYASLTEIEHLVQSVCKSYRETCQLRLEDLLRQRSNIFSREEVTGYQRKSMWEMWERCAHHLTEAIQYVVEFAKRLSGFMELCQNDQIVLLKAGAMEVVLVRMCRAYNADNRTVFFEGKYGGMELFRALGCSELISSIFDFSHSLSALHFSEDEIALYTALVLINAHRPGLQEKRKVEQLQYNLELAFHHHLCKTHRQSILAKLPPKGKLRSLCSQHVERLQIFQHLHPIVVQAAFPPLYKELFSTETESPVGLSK

Chain of recombinant RORγ Ligand Binding Domain (LBD) protein (P51449 269-508): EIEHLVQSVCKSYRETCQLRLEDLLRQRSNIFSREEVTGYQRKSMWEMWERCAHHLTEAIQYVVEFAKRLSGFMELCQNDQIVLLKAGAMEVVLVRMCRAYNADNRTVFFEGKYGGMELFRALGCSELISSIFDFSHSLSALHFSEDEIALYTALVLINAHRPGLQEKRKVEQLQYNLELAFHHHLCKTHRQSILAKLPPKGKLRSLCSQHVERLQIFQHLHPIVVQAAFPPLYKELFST

Ki [1]	IC50 [2]	Structure (SMILES)
< 100 nM	100 to 1000 nM	CCn1c(Cc2ccc(Cl)cc2)cc2cc(C(=O)N[C@@H](CO)c3ccc(S(=O)(=O)CC)cn3)ccc21 [IN-8, (R)-2-(4-chlorobenzyl)-1-ethyl-N-(1-(5-(ethylsulfonyl)pyridin-2-yl)-2-hydroxyethyl)-1H-indole-5-carboxamide]
< 100 nM	< 100 nM	CCn1c(Cc2ccc(C(F)(F)F)cn2)cc2cc(C(=O)N[C@@H](CO)c3ccc(S(=O)(=O)CC)cc3)ccc21 [IN-9, (R)-1-ethyl-N-(1-(4-(ethylsulfonyl)phenyl)-2-hydroxyethyl)-2-((5-(trifluoromethyl)pyridin-2-yl)methyl)-1H-indole-5-carboxamide]
< 100 nM	< 100 nM	CCn1c(CN2CCC(C(F)(F)F)CC2)cc2cc(C(=O)N[C@@H](CO)c3ccc(S(=O)(=O)CC)cc3)ccc21 [IN-10, (R)-1-ethyl-N-(1-(4-(ethylsulfonyl)phenyl)-2-hydroxyethyl)-2-((4-(trifluoromethyl)piperidin-1-yl)methyl)-1H-indole-5-carboxamide]
< 100 nM	< 100 nM	CCn1c(CN2CCC(C(F)(F)F)CC2)cc2cc(C(=O)N[C@@H](CO)c3ccc(S(=O)(=O)CC)cn3)ccc21 [IN-11, (R)-1-ethyl-N-(1-(5-(ethylsulfonyl)pyridin-2-yl)-2-hydroxyethyl)-2-((4-(trifluoromethyl)piperidin-1-yl)methyl)-1H-indole-5-carboxamide]
< 100 nM	< 100 nM	CCS(=O)(=O)c1ccc(CNC(=O)c2ccc3c(c2)cc(CN2CCC(C(F)(F)F)CC2)n3C2CC2)cc1 [IN-12, 1-cyclopropyl-N-(4-(ethylsulfonyl)benzyl)-2-((4-(trifluoromethyl)piperidin-1-yl)methyl)-1H-indole-5-carboxamide]
< 100 nM	< 100 nM	CCS(=O)(=O)c1ccc([C@H](CO)NC(=O)c2ccc3c(c2)cc(CN2CCC(C(F)(F)F)CC2)n3C2CC2)cc1 [IN-13, (R)-1-cyclopropyl-N-(1-(4-(ethylsulfonyl)phenyl)-2-hydroxyethyl)-2-((4-(trifluoromethyl)piperidin-1-yl)methyl)-1H-indole-5-carboxamide]
< 100 nM	< 100 nM	CCS(=O)(=O)c1ccc(CNC(=O)c2ccc3c(c2)cc(Cc2ccc(C(F)(F)F)cc2)n3C2CC2)cc1 [IN-18, 1-cyclopropyl-N-(4-(ethylsulfonyl)benzyl)-2-(4-(trifluoromethyl)benzyl)-1H-indole-5-carboxamide]
< 100 nM	< 100 nM	CCS(=O)(=O)c1ccc([C@H](CO)NC(=O)c2ccc3c(c2)cc(Cc2ccc(C(F)(F)F)cc2)n3C2CC2)nc1 [IN-19, (R)-1-cyclopropyl-N-(1-(5-(ethylsulfonyl)pyridin-2-yl)-2-hydroxyethyl)-2-(4-(trifluoromethyl)benzyl)-1H-indole-5-carboxamide]
< 100 nM	100 to 1000 nM	CCn1c(Cc2ccc(C#N)cc2)cc2cc(C(=O)N[C@@H](CO)c3ccc(S(=O)(=O)CC)cn3)ccc21 [IN-21, (R)-2-(4-cyanobenzyl)-1-ethyl-N-(1-(5-(ethylsulfonyl)pyridin-2-yl)-2-hydroxyethyl)-1H-indole-5-carboxamide]
< 100 nM	< 100 nM	CCn1c(C(=O)c2ccc(C(F)(F)F)cn2)cc2cc(C(=O)N[C@@H](CO)c3ccc(S(=O)(=O)CC)cc3)ccc21 [IN-22, (R)-1-ethyl-N-(1-(4-(ethylsulfonyl)phenyl)-2-hydroxyethyl)-2-(5-(trifluoromethyl)picolinoyl)-1H-indole-5-carboxamide]

Structure (SMILES)	Ki [1]	IC50 [2]
CCn1c(C[C@H]2CC[C@H](C(F)(F)F)CC2)cc2cc(C(=O)NCc3ccc(S(=O)(=O)CC)cn3)ccc21 [IN-15.1, 1-ethyl-N-((5-(ethylsulfonyl)pyridin-2-yl)methyl)-2-(((1r,4r)-4-(trifluoromethyl)cyclohexyl)methyl)-1H-indole-5-carboxamide]	< 100 nM	< 100 nM
CCn1c(C[C@H]2CC[C@H](C(F)(F)F)CC2)cc2cc(C(=O)N[C@@H](CO)c3ccc(S(=O)(=O)CC)cc3)ccc21 [IN-16.1, 1-ethyl-N-((R)-1-(4-(ethylsulfonyl)phenyl)-2-hydroxyethyl)-2-(((1r,4R)-4-(trifluoromethyl)cyclohexyl)methyl)-1H-indole-5-carboxamide]	< 100 nM	< 100 nM
CCn1c(C[C@H]2CC[C@H](C(F)(F)F)CC2)cc2cc(C(=O)NCc3ccc(S(=O)(=O)CC)cc3)ccc21 [IN-17.1, 1-ethyl-N-(4-(ethylsulfonyl)benzyl)-2-(((1r,4r)-4-(trifluoromethyl)cyclohexyl)methyl)-1H-indole-5-carboxamide]	< 100 nM	< 100 nM
